This note sets out measurements from publication PMC10584170, “Machine learning-based phenotypic imaging to characterise the targetable biology of Plasmodium falciparum male gametocytes for the development of transmission-blocking antimalarials” (PLOS Pathogens, 2023).

The test system of assay [1] is P. falciparum male gametocytes. The experiment in a line: P. falciparum Dual Gamete Formation Assay (PfDGFA), male readout (exflagellation). Type of assay: cell-based, Plasmodium falciparum NF54. Conditions: for Average inhibition male (%): average of replicates; for % inhibition male (individual replicates) R1: replicate R1; for % inhibition male (individual replicates) R4: replicate R4; for % inhibition male (individual replicates) R3: replicate R3; for Activity: hit = >50% inhibition in male or female readout in at least 3 replicates, 0 = no class assigned. The method, then:
(§1) P. falciparum NF54 (originally isolated from an imported malaria case in the Netherlands in the 1980s; BEI Resources, cat. No. MRA-1000) strain asexual parasites were maintained between 0.3–5% parasitaemia by regular passage in complete culture medium (RPMI supplemented with 25 mM HEPES, 50 μg ml^−1 hypoxanthine, 4.8 g l^−1 NaHCO3, 2mM L-glutamine, 5% pooled type AB serum, 0.5% Albumax II (Gibco)) at 4% haematocrit in washed whole blood (National Blood and Transfusion Service or Centro de Transfusiones de la Comunidad de Madrid CTCM) under a 1% O2/3% CO2/96% N2 environment. Gametocytes were induced by seeding culture flasks at 2% parasitaemia/4% haematocrit and subjecting them to daily medium changes for 14 days whilst maintaining a temperature of 37°C at all times. On Day 14, the maturity of gametocytes was assessed by quantifying male gametogenesis (exflagellation). A 20 μl sample of gametocyte culture was mixed with equal volume of ookinete medium (complete culture medium supplemented with 0.1 μM xanthurenic acid) at room temperature and transferred to a haemocytometer. After 20 min at room temperature, exflagellation was accurately quantified as described in Delves et al. 2016 [17].
(§2) The Pf DGFA was performed as described in Delves et al. 2016 [17]. […] Plates were then incubated for 24 h at 37°C in a humidified box under a 1% O2/3% CO2/96% N2 gas mix. Gametogenesis was triggered by addition of 10 μl per well of ookinete medium + 0.27 μg ml^-1 Cy3-labelled anti-Pfs25 antibody. Plates were incubated on a metal block at 4°C for 4 min to ensure even cooling, then 28°C for a further 4 min. Exflagellation was recorded by capturing 10 frames over 1 s under brightfield illumination using a x4 objective with a 1.5x zoom (effectively x6) attached to an automated Nikon Ti fluorescence microscope. After recording exflagellation, plates were incubated for a further 24 h in the dark at 28°C to ensure maximal expression of Pfs25 by female gametes. The plates were then returned to the microscope and female gametes imaged at x6 using fluorescence microscopy.
(§3) Exflagellation centres and female gametes were quantified using custom image analysis pipelines developed within ICY Bioimage Analysis (https://icy.bioimageanalysis.org/).

Assay [2] deals with P. falciparum female gametocytes. The experiment in a line: P. falciparum Dual Gamete Formation Assay (PfDGFA), female readout (Pfs25-positive female gametes). Format: cell-based, Plasmodium falciparum NF54. Conditions: for Average inhibition female (%): average of replicates; for % inhibition female (individual replicates) R1: replicate R1; for % inhibition female (individual replicates) R3: replicate R3; for % inhibition female (individual replicates) R4: replicate R4. The method, then:
as §1, §2, §3

Where [3] appears, read: PfDGFA at 2µM, 24h preincubation with gametocytes.
[4] abbreviates: 2µM, 24h preincubation with gametocytes prior to induction of gametogenesis.
The mark [5] stands for this setting: 2µM, 24h preincubation, hits selected on >50% inhibition in the male readout across replicates.
The mark [6] stands for this setting: PfDGFA at 2µM, 24h preincubation.
Setting [7] is: 2µM, 24h preincubation, hits selected on >50% inhibition in the female readout across replicates.
Where [8] appears, read: PfDGFA at 2µM, 24h preincubation with gametocytes prior to induction of gametogenesis.

For `Br.CCCCc1ccc(CCNCCCCCCNCCc2ccc(O)c(O)c2)cc1` [TCMDC-131281], in assay [1] (setting [3]), the “Average inhibition male (%)” value is given as 80.5%, the “% inhibition male (individual replicates) R1” value is 68.8% and the “% inhibition male (individual replicates) R4” value stood at 77.5%. The same compound returned a HitlevelM in assay [1] (number of replicates with >50% inhibition in the male readout, 2µM) of 3. Further, in assay [2] (setting [3]), the “Average inhibition female (%)” value was found to be 39.8%, the “% inhibition female (individual replicates) R1” value amounted to 30.3%, the “% inhibition female (individual replicates) R3” value amounted to 35.5% and the “% inhibition female (individual replicates) R4” value was determined as 31.1%. The compound further came in with a HitlevelF in assay [2] (number of replicates with >50% inhibition in the female readout, 2µM) of 1.

As to `COc1cccc(CCNCCCCCCNCCc2ccc(Cl)cc2)c1.Cl` [TCMDC-131284], in assay [1] (setting [4]), the “Average inhibition male (%)” value stood at 40.5%, the “% inhibition male (individual replicates) R1” value came to 42.7%, the “% inhibition male (individual replicates) R3” value was 17.7% and the “% inhibition male (individual replicates) R4” value came out at 36.9%. This compound also returned a HitlevelM in assay [1] (setting [5]) of 1. This compound came in with an Activity in assay [1] (setting [6]) of 0. In assay [2] (setting [4]), the “Average inhibition female (%)” value is reported as 15.8%, the “% inhibition female (individual replicates) R1” value amounted to 18.4%, the “% inhibition female (individual replicates) R3” value is listed as 6.6% and the “% inhibition female (individual replicates) R4” value is on record as 6.5%. Also, the HitlevelF in assay [2] (setting [7]) is 0.

Regarding `Br.Oc1cccc(CCNCCCCCCNCCc2ccc(Cl)cc2)c1` [TCMDC-131285], in assay [1] (setting [4]), the “Average inhibition male (%)” value turned out to be 17.5%, the “% inhibition male (individual replicates) R1” value turned out to be 13.8%, the “% inhibition male (individual replicates) R3” value is on record as 6.4% and the “% inhibition male (individual replicates) R4” value was 28.9%. For the same compound, in assay [1] (setting [5]), the HitlevelM is given as 0. The same compound had an Activity in assay [1] (setting [6]) of 0. Moreover, in assay [2] (setting [4]), the “Average inhibition female (%)” value is on record as 14.3%, the “% inhibition female (individual replicates) R1” value was found to be 12.4%, the “% inhibition female (individual replicates) R3” value amounted to 15.9% and the “% inhibition female (individual replicates) R4” value stood at 17.3%. In assay [2] (setting [7]), this compound registered a HitlevelF of 0.

Take `Cl.NC1=NC(CCc2ccccc2)N(c2ccc(Cl)cc2)C(N)=N1` (stereo not shown) [TCMDC-131290]: in assay [1] (setting [8]), the “% inhibition male (individual replicates) R1” value is given as -21.3%, the “% inhibition male (individual replicates) R3” value is -9.1% and the “% inhibition male (individual replicates) R4” value is on record as -39.8%. Further, in assay [1] (setting [6]), the “Average inhibition male (%)” value is listed as -16.9%. For the same compound, in assay [2] (setting [8]), the “% inhibition female (individual replicates) R1” value turned out to be 1.0%, the “% inhibition female (individual replicates) R3” value was -2.9% and the “% inhibition female (individual replicates) R4” value is -19.8%. Also, the “Average inhibition female (%)” value in assay [2] (setting [6]) is reported as -10.7%.

`Br.CCCC1N=C(N)N=C(N)N1c1ccc(CC)cc1` (stereo not shown) [TCMDC-131300]: in assay [1] (setting [4]), the “Average inhibition male (%)” value is recorded as -2.2%, the “% inhibition male (individual replicates) R1” value is recorded as 7.1%, the “% inhibition male (individual replicates) R3” value is 2.2% and the “% inhibition male (individual replicates) R4” value is recorded as -35.1%. In assay [1] (setting [5]), this compound displayed a HitlevelM of 0. Moreover, the Activity in assay [1] (setting [6]) was 0. In assay [2] (setting [4]), the “Average inhibition female (%)” value is 5.7%, the “% inhibition female (individual replicates) R1” value worked out at 16.1%, the “% inhibition female (individual replicates) R3” value was 10.4% and the “% inhibition female (individual replicates) R4” value came to 12.0%. The same compound showed a HitlevelF in assay [2] (setting [7]) of 0.

For `CNCCCCCCOc1ccc(CC(C)NCC(O)c2cccc(C(F)(F)F)c2)cc1.Cl` (stereo not shown) [TCMDC-131523], in assay [1] (setting [8]), the “% inhibition male (individual replicates) R1” value turned out to be 2.8%, the “% inhibition male (individual replicates) R3” value is on record as -13.3% and the “% inhibition male (individual replicates) R4” value was 4.2%. In addition, the “Average inhibition male (%)” value in assay [1] (setting [6]) was -0.8%. For the same compound, in assay [2] (setting [8]), the “% inhibition female (individual replicates) R1” value is recorded as 10.7%, the “% inhibition female (individual replicates) R3” value is on record as -17.9% and the “% inhibition female (individual replicates) R4” value is given as 1.1%. Further, in assay [2] (setting [6]), the “Average inhibition female (%)” value is given as -0.7%.
